Data as given in PMC7352223, “Mapping of CaM, S100A1 and PIP2-Binding Epitopes in the Intracellular N- and C-Termini of TRPM4” (International Journal of Molecular Sciences, 2020).
Residues, ends and D or L forms follow the SMILES beside them.

biological target: T1, calmodulin (CaM) (Homo sapiens, UniProt P0DP23); test: Steady-state fluorescence anisotropy (FA) binding assay, peptide titrated with CaM; settings: carboxyfluorescein-labelled peptide titrated with CaM, 25 mM Tris-HCl pH 7.5, 250 mM NaCl, 200 µM CaCl2, 25 °C, value (SD), anisotropy measured six times per concentration, read-out: KD of peptide/CaM complex, CaM/Ca2+ KD (SD)
T1 construct: made in house
Description: First, we studied whether M4nt_WT and M4ct_WT are able to bind CaM and S100A1 at all. The carboxyfluorescein-labelled M4nt_WT and M4ct_WT peptides were titrated with increasing amounts of CaM or S100A1, and FA was measured for each point of titration. The FA increased due to a slower rotational diffusion of the formed complexes, and the fraction bound (Fb) of M4nt_WT and M4ct_WT could be calculated (Figure 2A, Figure 3A, Figure 4A, Figure 5A). Since the specific interactions of M4nt_WT and M4ct_WT with CaM/S100A1 were calcium-dependent, all samples were measured in the presence of 200-μM CaCl2. The fluorescence lifetimes τi of all peptides and their complexes (and all the following characterised peptides/complexes) were constant during all the experiments, with the values close to 3 ns. […] Overall, the FA results indicated the high affinity of M4nt_WT and M4ct_WT peptides to CaM and S100A1. Both M4nt_WT and M4ct_WT peptides thus seemed to represent potential binding epitopes on TRPM4.
The experiments were performed on a K2 spectrofluorometer (ISS, Inc., Champaign, IL, USA) at 25 °C in a cuvette with a 2-mm path length. […] Fluorescence was excited at 490 nm, and polarised emission components III and I⊥, required for the construction of the emission anisotropy, were acquired and averaged quasi-simultaneously at 525 nm by repetitive switching of the emission polariser. […] The anisotropy values r were calculated from the fluorescence intensities in the parallel (III) and perpendicular (I⊥) directions according to the relationship r = (III − GI⊥)/(III + 2GI⊥), where G is a factor correcting for different transmittance of the detection channel for the two measured polarisations (III and I⊥). The G factor was determined in a separate experiment. The measurements were repeated six times for each ligand concentration; the mean anisotropy value was calculated and used for further analysis. […] The Q was evaluated for every binding experiment from the ratio of the fluorescence lifetimes of the bound to the free M4nt, M4ct or PIP2: Q = τbound/τfree. […]

| Structure (SMILES) | Kd |
| --- | --- |
| CC(C)C[C@H](NC(=O)[C@@H]1CCCN1C(=O)[C@H](CS)NC(=O)[C@H](CCCNC(=N)N)NC(=O)[C@H](CCCNC(=N)N)NC(=O)[C@H](CC(C)C)NC(=O)[C@H](CC(C)C)NC(=O)[C@H](CC(C)C)NC(=O)[C@H](CCCNC(=N)N)NC(=O)[C@H](C)NC(=O)[C@H](C)NC(=O)[C@H](CCCNC(=N)N)NC(=O)[C@@H](NC(=O)[C@H](CCC(=O)O)NC(=O)[C@H](CO)NC(=O)[C@H](CO)NC(=O)[C@H](C)NC(=O)[C@H](Cc1ccc(O)cc1)NC(=O)[C@H](CS)NC(=O)[C@H](CCC(=O)O)NC(=O)CNC(=O)[C@@H](N)Cc1ccccc1)C(C)C)C(=O)O [M4nt_R632A] (H-FGECYASSEVRAARLLLRRCPL-OH) | 27.2 µM |
| CC(C)C[C@H](NC(=O)[C@@H]1CCCN1C(=O)[C@H](CS)NC(=O)[C@H](C)NC(=O)[C@H](C)NC(=O)[C@H](CC(C)C)NC(=O)[C@H](CC(C)C)NC(=O)[C@H](CC(C)C)NC(=O)[C@H](C)NC(=O)[C@H](C)NC(=O)[C@H](C)NC(=O)[C@H](CCCNC(=N)N)NC(=O)[C@@H](NC(=O)[C@H](CCC(=O)O)NC(=O)[C@H](CO)NC(=O)[C@H](CO)NC(=O)[C@H](CCCNC(=N)N)NC(=O)[C@H](Cc1ccc(O)cc1)NC(=O)[C@H](CS)NC(=O)[C@H](CCC(=O)O)NC(=O)CNC(=O)[C@@H](N)Cc1ccccc1)C(C)C)C(=O)O [M4nt_R640A/R644A/R645A] (H-FGECYRSSEVRAAALLLAACPL-OH) | 80 µM |
| CC(C)C[C@H](NC(=O)[C@@H]1CCCN1C(=O)[C@H](CS)NC(=O)[C@H](CCCNC(=N)N)NC(=O)[C@H](CCCNC(=N)N)NC(=O)[C@H](CC(C)C)NC(=O)[C@H](CC(C)C)NC(=O)[C@H](CC(C)C)NC(=O)[C@H](C)NC(=O)[C@H](C)NC(=O)[C@H](C)NC(=O)[C@H](CCCNC(=N)N)NC(=O)[C@@H](NC(=O)[C@H](CCC(=O)O)NC(=O)[C@H](CO)NC(=O)[C@H](CO)NC(=O)[C@H](CCCNC(=N)N)NC(=O)[C@H](Cc1ccc(O)cc1)NC(=O)[C@H](CS)NC(=O)[C@H](CCC(=O)O)NC(=O)CNC(=O)[C@@H](N)Cc1ccccc1)C(C)C)C(=O)O [M4nt_R640A] (H-FGECYRSSEVRAAALLLRRCPL-OH) | 17 µM |
